Test results as given in patent US20220184155A1, “BACTERIOPHAGES FOR INHIBITING BACTERIA” (REGENTS OF THE UNIVERSITY OF MINNESOTA, priority 2020, published 2022).
Where two headings read alike, the source gives them in different places.

System: mix-culture of E. coli strains (E20, 41, 55, and 59)
Test: Checkerboard titration assay, phage cocktail with antibiotics
Format: cell-based
Method: A checkerboard titration assay was performed as described previously (Hsieh et al. Diagn Microbiol Infect Dis 16, 343-349 (1993)). Briefly, antibiotics (cefoperazone, vancomycin, polymyxin B, and rifampicin) were two-fold serially diluted on each column, and phage cocktail was 10-fold diluted on each row. The mix-culture of E. coli strains (E20, 41, 55, and 59) was added to 10^5 CFU/well, and the plate was incubated at 42° C. for 24 hours. The OD600 was measured with SpectaMax i3 Platfrom (Molecular Devices, San Jose, Calif.), and shown as a heat plot.
Because the selective pressure of the enrichment media is determined by antibiotic supplements in the media, the inhibition efficacy of the phage cocktail was measured in the presence of four antibiotics (cefoperazone, vancomycin, polymyxin B, and rifampicin) used in BB and PB. […] A checkerboard assay was performed to examine the antimicrobial activity of the phage cocktail in combination with antibiotics.

[1] = Escherichia coli, antibiotic without the phage cocktail, 42° C., 24 hours, read-out: MIC
[2] = antibiotic without the phage cocktail, 42° C., 24 hours

| Compound | MIC [1] [µg/mL] | MIC [2] [µg/mL] | MIC (Escherichia coli, 24 h) [µg/mL] |
| --- | --- | --- | --- |
| CCN1CCN(C(=O)N[C@@H](C(=O)N[C@@H]2C(=O)N3C(C(=O)O)=C(CSc4nnnn4C)CS[C@H]23)c2ccc(O)cc2)C(=O)C1=O [cefoperazone] | > 512 | > 512 | – |
| CO[C@H]1/C=C/O[C@@]2(C)Oc3c(C)c(O)c4c(O)c(c(/C=N/N5CCN(C)CC5)c(O)c4c3C2=O)NC(=O)/C(C)=C\C=C\[C@H](C)[C@H](O)[C@@H](C)[C@@H](O)[C@@H](C)[C@H](OC(C)=O)[C@@H]1C [rifampicin] | 32 | – | – |
| CN[C@H](CC(C)C)C(=O)N[C@H]1C(=O)N[C@@H](CC(N)=O)C(=O)N[C@H]2C(=O)N[C@H]3C(=O)N[C@H](C(=O)N[C@H](C(=O)O)c4cc(O)cc(O)c4-c4cc3ccc4O)[C@H](O)c3ccc(c(Cl)c3)Oc3cc2cc(c3O[C@@H]2O[C@H](CO)[C@@H](O)[C@H](O)[C@H]2O[C@H]2C[C@](C)(N)[C@H](O)[C@H](C)O2)Oc2ccc(cc2Cl)[C@H]1O [vancomycin] | – | – | 64 |
| polymyxin B | – | 4 | – |
